The text below walks through data of US9902728B2, “Pyrrolo and pyrazolopyrimidines as ubiquitin-specific protease 7 inhibitors” (Forma Therapeutics, Inc., priority 2014, dated 2018).

The structures appear in SMILES notation. pIC50: −log10 of the molar value. Some results are limits rather than exact numbers.

The target in this test is T1, USP7 (Homo sapiens, UniProt Q93009).
T1 construct: USP7, construct USP7 (208-1102) 6*His, Viva Biotech; 6xHis (C); purchased Viva Biotech
T1 sequence (Q93009 208-1102): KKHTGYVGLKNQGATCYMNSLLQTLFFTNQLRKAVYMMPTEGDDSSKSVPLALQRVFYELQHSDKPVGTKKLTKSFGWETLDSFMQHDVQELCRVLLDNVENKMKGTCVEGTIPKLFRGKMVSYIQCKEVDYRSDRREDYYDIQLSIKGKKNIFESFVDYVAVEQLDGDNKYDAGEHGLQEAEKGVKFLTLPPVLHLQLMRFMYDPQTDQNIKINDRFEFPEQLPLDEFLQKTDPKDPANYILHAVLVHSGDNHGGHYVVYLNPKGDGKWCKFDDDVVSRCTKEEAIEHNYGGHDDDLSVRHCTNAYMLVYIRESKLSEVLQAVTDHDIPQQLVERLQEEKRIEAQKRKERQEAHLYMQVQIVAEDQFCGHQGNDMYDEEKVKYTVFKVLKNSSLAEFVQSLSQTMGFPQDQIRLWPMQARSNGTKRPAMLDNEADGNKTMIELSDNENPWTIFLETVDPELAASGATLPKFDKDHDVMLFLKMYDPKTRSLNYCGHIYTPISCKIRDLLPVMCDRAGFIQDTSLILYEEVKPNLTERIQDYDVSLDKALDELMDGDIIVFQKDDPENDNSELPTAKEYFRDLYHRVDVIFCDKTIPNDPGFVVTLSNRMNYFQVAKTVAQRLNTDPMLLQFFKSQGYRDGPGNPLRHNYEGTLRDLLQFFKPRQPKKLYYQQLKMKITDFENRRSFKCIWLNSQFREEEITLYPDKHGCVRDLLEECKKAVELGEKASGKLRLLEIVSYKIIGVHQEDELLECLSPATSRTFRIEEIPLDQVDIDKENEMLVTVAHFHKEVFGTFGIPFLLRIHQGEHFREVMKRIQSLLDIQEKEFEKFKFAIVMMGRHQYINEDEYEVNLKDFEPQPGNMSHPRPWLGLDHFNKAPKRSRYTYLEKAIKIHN
As to the kind of experiment: USP7 Assay A (Ubitquin-Rhodamine 110 Assay). The format is biochemical. The conditions noted are these: USP7 assay A and B (table does not say which assay per compound); read-out: USP7_IC50. How it is done:
Each assay was performed in a final volume of 15 μL in assay buffer containing 20 mM Tris-HCl (pH 8.0, (1M Tris-HCl, pH 8.0 solution; Corning 46-031-CM)), 1 mM GSH (L-Glutathione reduced; Sigma #G4251), 0.03% BGG ([…], Sigma, #G7516-25G), and 0.01% Triton X-100 (Sigma, #T9284-10L). […] 5 μL of 2× enzyme was added to assay plates (pre-stamped with compound) preincubated with USP7 for 30 minutes and then 5 μL of 2×Ub-Rh110 was added to assay plates. […] Fluorescence was read on the Envision (Excitation at 485 nm and Emission at 535 nm; Perkin Elmer) or on the PheraSTAR (Excitation at 485 nm and Emission at 535 nm; BMG Labtech).
Data from USP7 Assays A and B were reported as percent inhibition (inh) compared with control wells based on the following equation: % inh=1−((FLU−AveLow)/(AveHigh−AveLow)) where FLU=measured Fluorescence (See Tables 6-10). AveLow=average Fluorescence of no enzyme control (n=16). AveHigh=average Fluorescence of DMSO control (n=16). […] Data is fitted using the Levenburg Marquardt algorithm.
For the molecule `Cc1ccc(C(=O)N2CCC(O)(Cn3cnc4c(cnn4-c4ccccc4)c3=O)CC2)cc1Cl` [Compound I-211], the pIC50 is 6.00 to 6.70.

Regarding `Cc1cc(C(=O)N2CCC(O)(Cn3cnc4c(cnn4-c4ccccc4)c3=O)CC2)ccc1Cl` [Compound I-212], the pIC50 was 6.00 to 6.70.

As for `O=C(c1ccc(Cl)c(Cl)c1)N1CCC(O)(Cn2cnc3c(cnn3-c3ccccc3)c2=O)CC1` [Compound I-213], the pIC50 was 5.00 to 6.00.

Turning to `COc1ccc(C(=O)N2CCC(O)(Cn3cnc4c(cnn4-c4ccccc4)c3=O)CC2)cc1Cl` [Compound I-214], the pIC50 was 6.00 to 6.70.

Take `COc1ccc(Cl)cc1C(=O)N1CCC(O)(Cn2cnc3c(cnn3-c3ccccc3)c2=O)CC1` [Compound I-218]: the pIC50 is 5.00 to 6.00.

In the case of `COc1ccc(OC)c(C(=O)N2CCC(O)(Cn3cnc4c(cnn4-c4ccccc4)c3=O)CC2)c1` [Compound I-221], the pIC50 is 5.00 to 6.00.

Regarding `O=C(c1cc(Cl)ccc1Cl)N1CCC(O)(Cn2cnc3c(cnn3-c3ccccc3)c2=O)CC1` [Compound I-223], the pIC50 was 6.00 to 6.70.

On to `O=C(c1ccc(Cl)cc1Cl)N1CCC(O)(Cn2cnc3c(cnn3-c3ccccc3)c2=O)CC1` [Compound I-224], for which the pIC50 is 6.00 to 6.70.

In the case of `COc1cc(C(=O)N2CCC(O)(Cn3cnc4c(cnn4-c4ccccc4)c3=O)CC2)ccc1Cl` [Compound I-226], the pIC50 is 5.00 to 6.00.

Consider `Cc1cnc(C(=O)N2CCC(O)(Cn3cnc4c(cnn4-c4ccccc4)c3=O)CC2)cn1` [Compound I-227], for which the pIC50 was below 5.00.

As for `Cc1cc(C(=O)N2CCC(O)(Cn3cnc4c(cnn4-c4ccccc4)c3=O)CC2)nn1C` [Compound I-229], the pIC50 was 5.00 to 6.00.

Regarding `Cc1nc(C)c(C(=O)N2CCC(O)(Cn3cnc4c(cnn4-c4ccccc4)c3=O)CC2)s1` [Compound I-230], the pIC50 was 5.00 to 6.00.

For `Nc1cc(Cl)ccc1C(=O)N1CCC(O)(Cn2cnc3c(cnn3-c3ccccc3)c2=O)CC1` [Compound I-232], the pIC50 is 6.00 to 6.70.

Consider `Nc1ccc(Cl)cc1C(=O)N1CCC(O)(Cn2cnc3c(cnn3-c3ccccc3)c2=O)CC1` [Compound I-233], for which the pIC50 was 6.00 to 6.70.

Take `O=C(c1cnc(-c2ccccc2)o1)N1CCC(O)(Cn2cnc3c(cnn3-c3ccccc3)c2=O)CC1` [Compound I-252]: the pIC50 was 6.00 to 6.70.

Turning to `C#CC(=O)NC1CC(C(=O)N2CCC(O)(Cn3cnc4c(cnn4-c4ccccc4)c3=O)CC2)C1` (stereo not drawn) [Compound I-259], the pIC50 was 5.00 to 6.00.

As for `O=C(C1CC1)N1CCC(O)(Cn2cnc3c(cnn3-c3ccc(Cl)cc3Cl)c2=O)CC1` [Compound I-264], the pIC50 was below 5.00.

Turning to `O=C(c1ccccc1)N1CCC(O)(Cn2cnc3c(cnn3-c3ccc(F)cc3)c2=O)CC1` [Compound I-266], the pIC50 was 5.00 to 6.00.

Take `COc1ccc(C(=O)N2CCC(O)(Cn3cnc4c(cnn4-c4ccc(F)cc4)c3=O)CC2)cc1` [Compound I-267]: the pIC50 is 6.00 to 6.70.

In the case of `O=C(c1ccc(F)cc1)N1CCC(O)(Cn2cnc3c(cnn3-c3ccc(F)cc3)c2=O)CC1` [Compound I-268], the pIC50 is 5.00 to 6.00.

As for `CC1(C(=O)N2CCC(O)(Cn3cnc4c(cnn4-c4ccccc4)c3=O)CC2)CC1` [Compound I-271], the pIC50 is 5.00 to 6.00.

As for `O=C(O)c1ccc(C(=O)N2CCC(O)(Cn3cnc4c(cnn4-c4ccccc4)c3=O)CC2)cc1` [Compound I-272], the pIC50 is 5.00 to 6.00.

In the case of `O=C(c1ccc(OC(F)F)cc1)N1CCC(O)(Cn2cnc3c(cnn3-c3ccccc3)c2=O)CC1` [Compound I-274], the pIC50 is 5.00 to 6.00.

Consider `O=C(C1CC1)N1CCC(O)(Cn2cnc3c(cnn3-c3ccc(-c4ccccc4)cc3)c2=O)CC1` [Compound I-276], for which the pIC50 is 5.00 to 6.00.

As to `O=C(N1CCC(O)(Cn2cnc3c(cnn3-c3ccccc3)c2=O)CC1)C1(C(F)(F)F)CC1` [Compound I-277], the pIC50 is 5.00 to 6.00.

As to `CN(C)C(=O)N1CCC(O)(Cn2cnc3c(cnn3-c3ccc(F)cc3)c2=O)CC1` [Compound I-279], the pIC50 is 5.00 to 6.00.

Regarding `O=C(c1ccc(Cl)cc1)N1CCC(O)(Cn2cnc3c(cnn3-c3ccccc3)c2=O)CC1` [Compound I-280], the pIC50 was 5.00 to 6.00.

`O=C(c1ccccc1)N1CCC(O)(Cn2cnc3c(cnn3-c3cccc(CO)c3)c2=O)CC1` [Compound I-281]: the pIC50 is 5.00 to 6.00.

`O=C(c1ccc2c(Cl)ccnc2c1)N1CCC(O)(Cn2cnc3c(cnn3-c3ccccc3)c2=O)CC1` [Compound I-282]: the pIC50 was 5.00 to 6.00.

In the case of `O=C(c1ccc(OC2CC2)cc1)N1CCC(O)(Cn2cnc3c(cnn3-c3ccc(F)cc3)c2=O)CC1` [Compound I-283], the pIC50 was 5.00 to 6.00.

As to `CNC(=O)N1CCC(O)(Cn2cnc3c(cnn3-c3ccc(F)cc3)c2=O)CC1` [Compound I-284, 4-{[1-(4-fluorophenyl)-4-oxo-1H,4H,5H-pyrazolo[3,4-d]pyrimidin-5-yl]methyl}-4-hydroxy-N-methylpiperidine-1-carboxamide], the pIC50 is 5.00 to 6.00.

Regarding `O=C(c1ccnc(Cl)c1)N1CCC(O)(Cn2cnc3c(cnn3-c3ccccc3)c2=O)CC1` [Compound I-287], the pIC50 is 5.00 to 6.00.

Regarding `O=C(N1CCC(O)(Cn2cnc3c(cnn3-c3ccccc3)c2=O)CC1)C12CC(C1)C2` [Compound I-289], the pIC50 was 6.00 to 6.70.

For the molecule `O=C(N1CCC(O)(Cn2cnc3c(cnn3-c3ccccc3)c2=O)CC1)C12CC(C(F)(F)F)(C1)C2` [Compound I-290], the pIC50 is 5.00 to 6.00.

Turning to `CC(O)(c1ccc(C(=O)N2CCC(O)(Cn3cnc4c(cnn4-c4ccccc4)c3=O)CC2)cc1)C(F)(F)F` (stereo not drawn) [Compound I-291], the pIC50 is 5.00 to 6.00.

As for `CC(F)(F)c1ccc(C(=O)N2CCC(O)(Cn3cnc4c(cnn4-c4ccccc4)c3=O)CC2)cc1` [Compound I-294], the pIC50 is 5.00 to 6.00.

Regarding `O=C(C1CC1)N1CCC(O)(Cn2cnc3c(cnn3-c3ccc(Oc4ccccc4)cc3)c2=O)CC1` [Compound I-296], the pIC50 was 5.00 to 6.00.

As for `O=C(c1ccc(Cl)cc1)N1CCC(O)(Cn2cnc3c(cnn3-c3ccc(F)cc3)c2=O)CC1` [Compound I-302, 5-{[1-(4-chlorobenzoyl)-4-hydroxypiperidin-4-yl]methyl}-1-(4-fluorophenyl)-1H,4H,5H-pyrazolo[3,4-d]pyrimidin-4-one], the pIC50 was 6.00 to 6.70.

For `O=C(c1cccc(Cl)c1)N1CCC(O)(Cn2cnc3c(cnn3-c3ccc(F)cc3)c2=O)CC1` [Compound I-303], the pIC50 is 5.00 to 6.00.

For `O=C(c1ccc(C2CC2)cc1)N1CCC(O)(Cn2cnc3c(cnn3-c3ccc(F)cc3)c2=O)CC1` [Compound I-304], the pIC50 is 5.00 to 6.00.

As to `O=C(c1ccc(OC(F)F)cc1)N1CCC(O)(Cn2cnc3c(cnn3-c3ccc(F)cc3)c2=O)CC1` [Compound I-306], the pIC50 is 5.00 to 6.00.

As to `O=C(c1ccc(F)c(F)c1)N1CCC(O)(Cn2cnc3c(cnn3-c3ccc(F)cc3)c2=O)CC1` [Compound I-309], the pIC50 was 5.00 to 6.00.

On to `Cc1ncoc1C(=O)N1CCC(O)(Cn2cnc3c(cnn3-c3ccc(F)cc3)c2=O)CC1` [Compound I-312], for which the pIC50 was 5.00 to 6.00.

With `O=C(c1cnc(C2CC2)o1)N1CCC(O)(Cn2cnc3c(cnn3-c3ccc(F)cc3)c2=O)CC1` [Compound I-314], the pIC50 is 6.00 to 6.70.

Take `CN(C)c1ncc(C(=O)N2CCC(O)(Cn3cnc4c(cnn4-c4ccc(F)cc4)c3=O)CC2)o1` [Compound I-315]: the pIC50 was 5.00 to 6.00.

`O=C(c1ccc(Cl)cc1Cl)N1CCC(O)(Cn2cnc3c(cnn3-c3ccc(F)cc3)c2=O)CC1` [Compound I-317]: the pIC50 was 6.00 to 6.70.

Consider `O=C(C1CC1)N1CCC(O)(Cn2cnc3c(cnn3-c3ccc(-c4cccc(F)c4)cc3)c2=O)CC1` [Compound I-330], for which the pIC50 was 5.00 to 6.00.

Turning to `O=C(c1ccc(-c2ccc(-n3ncc4c(=O)n(CC5(O)CCN(C(=O)C6CC6)CC5)cnc43)cc2)cc1)N1CCCC1` [Compound I-333], the pIC50 is 5.00 to 6.00.

As to `O=C(C1CC1)N1CCC(O)(Cn2cnc3c(cnn3-c3cccc(-c4cccc(Cl)c4)c3)c2=O)CC1` [Compound I-347], the pIC50 is 5.00 to 6.00.

With `CN(C)C(=O)c1ccc(-c2cccc(-n3ncc4c(=O)n(CC5(O)CCN(C(=O)C6CC6)CC5)cnc43)c2)cc1` [Compound I-350], the pIC50 was 5.00 to 6.00.

`N#Cc1cccc(-c2cccc(-n3ncc4c(=O)n(CC5(O)CCN(C(=O)C6CC6)CC5)cnc43)c2)c1` [Compound I-359]: the pIC50 was 5.00 to 6.00.

Take `CN(C)CCOc1ccc(-c2ccc(-n3ncc4c(=O)n(CC5(O)CCN(C(=O)C6CC6)CC5)cnc43)cc2)cc1` [Compound I-369]: the pIC50 is 5.00 to 6.00.

On to `O=C(C1CC1)N1CCC(O)(Cn2cnc3c(cnn3-c3cccc(-c4cccc(O)c4)c3)c2=O)CC1` [Compound I-385], for which the pIC50 was 5.00 to 6.00.

For `O=C(C1CC1)N1CCC(O)(Cn2cnc3c(cnn3-c3cccc(-c4cncc(F)c4)c3)c2=O)CC1` [Compound I-387], the pIC50 is 5.00 to 6.00.

On to `O=C(C1CC1)N1CCC(O)(Cn2cnc3c(cnn3-c3ccc(-c4cc(F)ccc4CO)cc3)c2=O)CC1` [Compound I-390], for which the pIC50 was 5.00 to 6.00.

Regarding `O=C(C1CC1)N1CCC(O)(Cn2cnc3c(cnn3-c3ccc(-c4cccc(N5CCCC5)c4)cc3)c2=O)CC1` [Compound I-399], the pIC50 is 5.00 to 6.00.

As to `O=C(C1CC1)N1CCC(O)(Cn2cnc3c(cnn3-c3cccc(-c4cc(F)ccc4CO)c3)c2=O)CC1` [Compound I-403], the pIC50 is 5.00 to 6.00.
